Assay results as given in US10882856B2 (BeiGene, Ltd., priority 2017, dated 2021).

Experiments:
IDO1 [1] = target: T1, IDO1 (Homo sapiens, UniProt P14902); experiment: IDO1 enzymatic assay; type: biochemical; set-up: His tag (N); made in house; host or cells: E. coli; conditions: read-out: Enzyme IC50 IDO1
Procedure, shortened: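 Assays were run in 50 mM potassium phosphate pH 7.5 with 0.1% BSA for 1.5 hours at 24 °C. Each contained 50 nM E. coli-purified, N-terminally His-tagged IDO1, compound, 1.3 mM D-tryptophan, 5 mM L-ascorbic acid, methylene blue and 0.4 mg/mL catalase. IC50 was calculated from remaining enzyme activity across a rising compound series, with activity taken as the slope of N'-formylkynurenine formation read continuously at 321 nm for 1 hour.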

TDO = target: T2, TDO (Homo sapiens, UniProt P48775); experiment: TDO enzymatic assay; type: biochemical; conditions: read-out: Enzyme IC50 TDO
T2 construct: His tag (C); made in house; host or cells: E. coli
T2 sequence (P48775 whole entry): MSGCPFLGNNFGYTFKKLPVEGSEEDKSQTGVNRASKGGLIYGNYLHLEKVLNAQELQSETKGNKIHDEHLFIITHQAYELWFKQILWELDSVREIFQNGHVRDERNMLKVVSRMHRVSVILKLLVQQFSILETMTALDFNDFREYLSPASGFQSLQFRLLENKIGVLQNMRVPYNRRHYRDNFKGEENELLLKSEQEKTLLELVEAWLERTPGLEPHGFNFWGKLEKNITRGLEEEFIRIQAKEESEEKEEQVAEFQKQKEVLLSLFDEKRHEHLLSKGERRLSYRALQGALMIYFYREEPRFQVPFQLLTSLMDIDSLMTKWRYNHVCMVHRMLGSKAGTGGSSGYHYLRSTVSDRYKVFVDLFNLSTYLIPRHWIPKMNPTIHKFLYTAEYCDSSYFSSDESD
Procedure, shortened: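 Recombinant C-terminally His-tagged TDO purified from E. coli (100 nM) was tested with 0.5 mM L-tryptophan (Km concentration). Otherwise the IDO1 enzymatic set-up was used: ascorbic acid, methylene blue, catalase, and potassium phosphate pH 7.5 with BSA, incubated 1.5 hours. N'-formylkynurenine absorbance was read continuously at 321 nm, and activity was taken as the slope. IC50 was calculated from remaining enzyme activity across increasing compound concentrations.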

IDO1 [2] = target: T1, IDO1; experiment: Hela cell-based IDO1 assay; conditions: Hela cells
Procedure, shortened: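 HeLa cells were seeded at 8000 per well in 96-well plates in phenol red-free DMEM with 10% FBS. After 4 hours, DMSO-diluted compound dilutions were added with IFN-γ (final 100 ng/mL) and 0.4 mM L-Trp, and cells were kept 48 hours at 37 °C, 5% CO2. Supernatant was deproteinised with trichloroacetic acid, and kynurenine was measured at 480 nm after adding 2% 4-(dimethylamino)benzaldehyde. Potency came from four-parameter logistic fits in XLfit.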

[3] = target: T3, cellular TDO2 in HEK293-TDO2 cells (Homo sapiens, UniProt P48775); experiment: 293-TDO2 cell-based assay (Kyn colorimetric); conditions: 48 hours of incubation
T3 construct: expressed in transfected cells; host or cells: HEK293 (ATCC), stably transfected
T3 sequence (P48775 whole entry): as above
Procedure, shortened: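 Kyn formed from L-Trp was read colorimetrically at 480 nm (TCA deproteinisation, then 2% 4-(dimethylamino)benzaldehyde). Compounds were added to 293-TDO2 cells 4 h post-seeding and left 48 h at 37° C. A four-parameter logistic model gave IC50 values.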

T1 sequence (P14902 whole entry): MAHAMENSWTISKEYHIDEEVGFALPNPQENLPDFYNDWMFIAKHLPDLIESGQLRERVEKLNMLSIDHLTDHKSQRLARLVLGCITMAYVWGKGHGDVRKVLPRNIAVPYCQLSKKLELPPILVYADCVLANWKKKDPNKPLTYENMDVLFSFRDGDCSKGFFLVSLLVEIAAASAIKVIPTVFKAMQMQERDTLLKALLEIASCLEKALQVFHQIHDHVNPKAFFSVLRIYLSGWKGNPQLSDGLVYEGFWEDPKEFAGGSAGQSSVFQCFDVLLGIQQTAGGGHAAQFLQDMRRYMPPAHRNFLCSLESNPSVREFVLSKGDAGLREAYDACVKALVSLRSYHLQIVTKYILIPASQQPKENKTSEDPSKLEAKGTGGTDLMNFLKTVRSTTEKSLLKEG

IC50 (IDO1 [1]) [nM]	IC50 (TDO) [µM]	EC50 (IDO1 [2]) [nM]	EC50 [3] [µM]	Structure (SMILES)
67	11	2400	> 10	O[C@H](c1c(C2CC2)ccn2cncc12)[C@H]1CC[C@H](c2ccc(C(F)(F)F)cc2)CC1 (single isomer, unassigned) [Example C115a]
21	6.7	220	> 10	O[C@H](c1c(C2CC2)ccc2cncn12)[C@H]1CC[C@H](c2ccc3sccc3c2)CC1 (single isomer, unassigned) [Example D133a]
34	10	83	> 10	CC(C)c1ccc2cncn2c1[C@@H](O)[C@H]1CC[C@H](c2ccc(Cl)cc2)CC1 (single isomer, unassigned) [Example D115a]
39	7.4	1100	> 10	O[C@H](c1c(C2CC2)ccn2cncc12)[C@H]1CC[C@H](c2ccc(C(F)(F)F)nc2)CC1 (single isomer, unassigned) [Example C120a]
27	8.3	180	> 10	COc1cccc([C@H]2CC[C@H]([C@H](O)c3c(C4CC4)ccn4cncc34)CC2)c1 (single isomer, unassigned) [Example C114a]
80	6.7	370	> 10	O[C@H](c1c(C2CC2)ccc2cncn12)[C@H]1CC[C@H](c2ccc(Oc3ccccc3)cc2)CC1 (single isomer, unassigned) [Example D120a]
43	8.5	49	> 10	O[C@H](c1c(C2CC2)ccn2cncc12)[C@H]1CC[C@H](c2cccc(F)c2)CC1 (single isomer, unassigned) [Example C109a]
77	6.3	500	> 10	O[C@H](c1c(C2CC2)ccn2cncc12)[C@H]1CC[C@H](c2ccccc2C(F)(F)F)CC1 (single isomer, unassigned) [Example C116a]
15	9.4	43	> 10	O[C@H](c1c(C2CC2)ccc2cncn12)[C@H]1CC[C@H](c2cccc(Cl)c2)CC1 (single isomer, unassigned) [Example D116a]
34	5.1	344	> 10	O[C@H](c1c(C2CC2)ccc2cncn12)[C@H]1CC[C@H](c2ccc(-c3ccccc3)cc2)CC1 (single isomer, unassigned) [Example D119a]
29	3.3	520	> 10	Cn1cc(-c2ccc(N3CCC(C(O)c4c(C5CC5)ccn5cncc45)CC3)cc2)cn1 (centres unmarked) [Example C152, (7-cyclopropylimidazo[1,5-a]pyridin-8-yl)(1-(4-(1-methyl-1H-pyrazol-4-yl)phenyl)piperidin-4-yl)methanol]
25	11	32	> 10	O[C@H](c1c(C2CC2)ccc2cncn12)[C@H]1CC[C@H](c2cccc3ccccc32)CC1 (single isomer, unassigned) [Example D135a]
27	1.7	2530	> 10	O[C@H](c1cc(Cl)cc2cncn12)[C@H]1CC[C@H](c2ccc(Cl)cc2)CC1 (single isomer, unassigned) [Example E101a]
44	11	631	> 10	O[C@H](c1c(C2CC2)ccc2cncn12)[C@H]1CC[C@H](c2ccc(OC(F)(F)F)cc2)CC1 (single isomer, unassigned) [Example D105a]
17	5.6	67	> 10	OC(c1c(C2CC2)ccc2cncn12)[C@H]1CC[C@H](c2ccc(OC3CCOCC3)cc2)CC1 (single isomer, unassigned) [Example D114c]
47	6.7	1050	> 10	OCCn1cc(-c2ccc(N3CCC(C(O)c4c(C5CC5)ccn5cncc45)CC3)cc2)cn1 (centres unmarked) [Example C153, 2-(4-(4-(4-((7-cyclopropylimidazo[1,5-a]pyridin-8-yl)(hydroxy)methyl)piperidin-1-yl)phenyl)-1H-pyrazol-1-yl)ethan-1-ol]

IC50 (IDO1 [1]) [nM]	IC50 (TDO) [µM]	EC50 (IDO1 [2]) [nM]	EC50 [3] [µM]	Structure (SMILES)
18	7.5	23	> 10	O[C@H](c1c(C2CC2)ccc2cncn12)[C@H]1CC[C@H](c2ccc(F)cc2)CC1 (single isomer, unassigned) [Example D104a]
19	7.4	36	> 10	O[C@H](c1c(C2CC2)ccc2cncn12)[C@H]1CC[C@H](c2ccc(F)c3ccccc32)CC1 (single isomer, unassigned) [Example D137a]
35	21	283	> 10	Cc1ccc([C@H]2CC[C@H]([C@H](O)c3c(C4CC4)ccn4cncc34)CC2)cc1 (single isomer, unassigned) [Example C110a]
14	5.3	29	> 10	COc1ccc([C@H]2CC[C@H]([C@H](O)c3c(C4CC4)ccc4cncn34)CC2)cc1 (single isomer, unassigned) [Example D102a]
28	5.7	89	> 10	COc1ccccc1[C@H]1CC[C@H]([C@H](O)c2c(C3CC3)ccn3cncc23)CC1 (single isomer, unassigned) [Example C113a]
19	13	277	> 10	O[C@H](c1c(C2CC2)ccc2cncn12)[C@H]1CC[C@H](c2ccc(F)c(F)c2F)CC1 (single isomer, unassigned) [Example D145a]
28	8	131	> 10	Cc1cccc([C@H]2CC[C@H]([C@H](O)c3c(C4CC4)ccn4cncc34)CC2)c1 (single isomer, unassigned) [Example C111a]
17	4.2	110	> 10	COc1ccc([C@H]2CC[C@H]([C@H](O)c3c(C4CC4)ccn4cncc34)CC2)cc1 [Example C101a, (S)-(7-cyclopropylimidazo[1,5-a]pyridin-8-yl)(4-(4-methoxyphenyl)cyclohexyl)methanol]
21	10	167	> 10	COCCOc1ccc([C@H]2CC[C@H]([C@H](O)c3c(C4CC4)ccn4cncc34)CC2)cc1 (single isomer, unassigned) [Example C103a]
39	3.6	59	> 10	O[C@H](c1c(C2CC2)ccn2cncc12)[C@H]1CC[C@H](c2cccc3ccccc32)CC1 (single isomer, unassigned) [Example C121a]
25	7.7	306	> 10	O[C@H](c1c(C2CC2)ccc2cncn12)[C@H]1CC[C@H](c2ccc(Br)cc2)CC1 (single isomer, unassigned) [Example D118a]
18	2.5	50	> 10	Oc1ccc([C@H]2CC[C@H](C(O)c3c(C4CC4)ccn4cncc34)CC2)cc1 (single isomer, unassigned) [Example C104a]
14	9.2	35	> 10	O[C@H](c1c(C2CC2)ccc2cncn12)[C@H]1CC[C@H](c2ccccc2)CC1 (single isomer, unassigned) [Example D101a]
31	6.5	109	> 10	O[C@H](c1c(C2CC2)ccn2cncc12)[C@H]1CC[C@H](c2ccc(F)cc2)CC1 (single isomer, unassigned) [Example C107a]
15	3.4	131	> 10	O[C@H](c1c(C2CC2)ccn2cncc12)[C@H]1CC[C@H](c2ccc(OC3COC3)cc2)CC1 (single isomer, unassigned) [Example C117a]
21	16	254	> 10	O[C@H](c1c(C2CC2)ccc2cncn12)[C@H]1CC[C@H](c2ccc3ccccc3c2)CC1 (single isomer, unassigned) [Example D136a]
